Patent US20120129870A1, “PIPERAZINYL DERIVATIVES USEFUL AS MODULATORS OF THE NEUROPEPTIDE Y2 RECEPTOR” (priority 2007, published 2012)

Target: T1, NPY Y2 receptor (Homo sapiens, UniProt P49146)
T1 sequence (P49146 1-381): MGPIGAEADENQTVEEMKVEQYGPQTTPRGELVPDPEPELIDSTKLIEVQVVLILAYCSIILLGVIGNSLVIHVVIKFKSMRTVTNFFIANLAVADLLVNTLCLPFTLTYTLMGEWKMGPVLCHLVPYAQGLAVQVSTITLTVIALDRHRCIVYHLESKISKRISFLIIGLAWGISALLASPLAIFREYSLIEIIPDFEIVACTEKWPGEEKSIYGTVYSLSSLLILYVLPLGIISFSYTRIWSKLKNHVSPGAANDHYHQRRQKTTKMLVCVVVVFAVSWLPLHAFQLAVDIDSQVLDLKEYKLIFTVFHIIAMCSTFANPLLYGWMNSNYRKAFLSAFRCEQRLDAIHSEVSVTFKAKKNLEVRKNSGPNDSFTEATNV
Experiment: Neuropeptide Y2 radioligand binding assay ([125I]PYY, KAN-Ts membranes)
Set-up: endogenous in cells; host or cells: KAN-Ts cells (membrane preparation)
Conditions: KAN-Ts membranes endogenously expressing Y2, [125I]PYY (80 pM), 1 h at rt
Protocol: KAN-Ts endogenously expressing Y2 receptors were used for the radioligand binding assay. Cells were grown to confluence on 150 cm^2 tissue culture plates, washed with phosphate-buffered saline (PBS), and scraped into 50 mL tubes. After centrifugation, the supernatant was aspirated, and the pellets frozen and stored at −80° C. Thawed pellets were homogenized with a polytron tissue grinder for 15 sec in 20 mM Tris-HCl, 5 mM EDTA. The homogenate was centrifuged at 800×g for 5 min and the collected supernatant was recentrifuged at 25000×g for 25 min. The resulting pellet was resuspended in binding buffer (20 mM HEPES, 120 mM NaCl, 0.22 mM KH2PO4, 1.3 mM CaCl2, 0.8 mM MgSO4). Membranes were incubated with [^125I]PYY (80 pM) in the presence or absence of test compound for 1 h at rt. The reaction was stopped by filtration through GF/C filter plates pre-soaked in 0.3% polyethylenimine and subsequently washed with Tris 50 mM, 5 mM EDTA buffer. Plates were dried for 1 h in a 55° C. oven, scintillation fluid was added and the radioactivity was counted in a Packard TopCount. Specific binding to the NPY receptor subtypes was determined by radioactivity that was bound in the presence of […]. Each binding experiment was repeated three to eight times, each in duplicate. IC50 values (i.e. concentration of unlabelled peptide or antagonist required to compete for 50% of specific binding to the radioligand) were calculated using the GraphPad Prism software (GraphPad Software Inc., San Diego Calif.) with a fit to a sigmoidal dose response curve. Apparent K, values were calculated as Ki=IC50/(1+C/KD), where C is concentration of the radioligand.

Row | SMILES | IC50
1 | CCC(CC)C(=O)Nc1ccc(N2CCN(C(C#N)c3ccccn3)CC2)c(F)c1 (stereo not shown) [Compound 138, N-{4-[4-(Cyano-pyridin-2-yl-methyl)-piperazin-1-yl]-3-fluoro-phenyl}-2-ethyl-butyramide] | > 10 µM
2 | CCCC(=O)Nc1ccc(N2CCN(C(c3ccccc3)c3ncco3)CC2)c(F)c1 (stereo not shown) [Compound 100, N-{3-Fluoro-4-[4-(oxazol-2-yl-phenyl-methyl)-piperazin-1-yl]-phenyl}-butyramide] | 1.3 µM
3 | CCC(CC)C(=O)Nc1ccc(N2CCN(C(C#N)c3ccccc3OC)CC2)c(F)c1 (stereo not shown) [Compound 137, N-(4-{4-[Cyano-(2-methoxy-phenyl)-methyl]-piperazin-1-yl}-3-fluoro-phenyl)-2-ethyl-butyramide] | 1.2 µM
4 | CCC(CC)C(=O)Nc1ccc(N2CCN(C(c3ccccn3)c3ncco3)CC2)c(F)c1 (stereo not shown) [Compound 156, 2-Ethyl-N-{3-fluoro-4-[4-(oxazol-2-yl-pyridin-2-yl-methyl)-piperazin-1-yl]-phenyl}-butyramide] | 0.79 µM
5 | N#Cc1cc(NC(=O)C2CCC2)ccc1N1CCN(C(c2ccccc2)c2ncco2)CC1 (stereo not shown) [Compound 95, Cyclobutanecarboxylic acid {3-cyano-4-[4-(oxazol-2-yl-phenyl-methyl)-piperazin-1-yl]-phenyl}-amide] | 0.1 µM
6 | O=C(NC1CCCC1)c1ccc(N2CCN(C(c3ccccc3)c3ncco3)CC2)c(F)c1 (stereo not shown) [Compound 49, N-Cyclopentyl-3-fluoro-4-[4-(oxazol-2-yl-phenyl-methyl)-piperazin-1-yl]-benzamide] | > 10 µM
7 | CC(CC(F)(F)F)C(=O)Nc1ccc(N2CCN(C(c3ccccc3)c3ncco3)CC2)c(F)c1 (stereo not shown) [Compound 111, 4,4,4-Trifluoro-N-{3-fluoro-4-[4-(oxazol-2-yl-phenyl-methyl)-piperazin-1-yl]-phenyl}-2-methyl-butyramide] | 0.36 µM
8 | O=C(Nc1ccc(N2CCN(C(c3ccccc3)c3ncco3)CC2)c(F)c1)C1CCC1 (stereo not shown) [Compound 73, Cyclobutanecarboxylic acid {3-fluoro-4-[4-(oxazol-2-yl-phenyl-methyl)-piperazin-1-yl]-phenyl}-amide] | 0.18 µM
9 | Cc1cccnc1Nc1ccc(N2CCN(C(c3ccccc3)c3ncco3)CC2)c(F)c1 (stereo not shown) [Compound 57, {3-Fluoro-4-[4-(oxazol-2-yl-phenyl-methyl)-piperazin-1-yl]-phenyl}-(3-methyl-pyridin-2-yl)-amine] | > 10 µM
10 | CCC(CC)C(=O)Nc1ccc(N2CCN(C(c3ccc(OC(F)(F)F)cc3)c3noc(C)n3)CC2)c(F)c1 (stereo not shown) [Compound 281] | 0.065 µM
11 | CCC(CC)C(=O)Nc1ccc(N2CCN(C(c3ncco3)C3CCC3)CC2)c(F)c1 (stereo not shown) [Compound 116, N-{4-[4-(Cyclobutyl-oxazol-2-yl-methyl)-piperazin-1-yl]-3-fluoro-phenyl}-2-ethyl-butyramide] | 0.41 µM
12 | CCC(CC)C(=O)Nc1ccc(N2CCN(C(c3ccc(Cl)cc3)C3CC3)CC2)c(F)c1 (stereo not shown) [Compound 102, N-(4-{4-[(4-Chloro-phenyl)-cyclopropyl-methyl]-piperazin-1-yl}-3-fluoro-phenyl)-2-ethyl-butyramide] | 0.72 µM
13 | CCC(CC)C(=O)Nc1ccc(N2CCN(C(c3ccccc3)c3nc(C(C)C)no3)CC2)c(F)c1 (stereo not shown) [Compound 241] | 0.035 µM
14 | CC(C)C(=O)Nc1ccc(N2CCN(C(c3ccccc3)c3ncco3)CC2)c(F)c1 (stereo not shown) [Compound 72, N-{3-Fluoro-4-[4-(oxazol-2-yl-phenyl-methyl)-piperazin-1-yl]-phenyl}-isobutyramide] | 0.32 µM
15 | O=C(NCc1ccc(N2CCN(C(c3ccccc3)c3ncco3)CC2)c(F)c1)C1CC1 (stereo not shown) [Compound 171, Cyclopropanecarboxylic acid 3-fluoro-4-[4-(oxazol-2-yl-phenyl-methyl)-piperazin-1-yl]-benzylamide] | > 10 µM
16 | Cc1cc(NC(=O)C2CCC2)ccc1N1CCN(C(c2ccccc2)c2ncco2)CC1 (stereo not shown) [Compound 76, Cyclobutanecarboxylic acid {3-methyl-4-[4-(oxazol-2-yl-phenyl-methyl)-piperazin-1-yl]-phenyl}-amide] | 1.4 µM
17 | CCN(CC)C(=O)Cc1ccc(N2CCN(C(c3ccccc3)c3ccccc3)CC2)c(F)c1 [Compound 51, 2-[4-(4-Benzhydryl-piperazin-1-yl)-3-fluoro-phenyl]-N,N-diethyl-acetamide] | 1.55 µM
18 | CCC(CC)C(=O)Nc1ccc(N2CCN(C(c3ccccc3)C3C(C)C3(Cl)Cl)CC2)c(F)c1 (stereo not shown) [Compound 115, N-(4-{4-[(2,2-Dichloro-3-methyl-cyclopropyl)-phenyl-methyl]-piperazin-1-yl}-3-fluoro-phenyl)-2-ethyl-butyramide] | 0.45 µM
19 | CCC(CC)C(=O)Nc1ccc(N2CCN(C(C3=N[C@H](C(=O)OC)CO3)c3ccccc3)CC2)c(F)c1 (stereo partly shown) [Compound 179, 2-({4-[4-(2-Ethyl-butyrylamino)-2-fluoro-phenyl]-piperazin-1-yl}-phenyl-methyl)-4,5-dihydro-oxazole-4-carboxylic acid methyl ester] | 0.041 µM
20 | Cc1ccccc1C(=O)Nc1ccc(N2CCN(C(c3ccccc3)c3ncco3)CC2)c(C#N)c1 (stereo not shown) [Compound 96, N-{3-Cyano-4-[4-(oxazol-2-yl-phenyl-methyl)-piperazin-1-yl]-phenyl}-2-methyl-benzamide] | 0.15 µM
21 | Cc1ccccc1Nc1ccc(N2CCN(C(c3ccccc3)c3ncco3)CC2)c(F)c1 (stereo not shown) [Compound 63, {3-Fluoro-4-[4-(oxazol-2-yl-phenyl-methyl)-piperazin-1-yl]-phenyl}-o-tolyl-amine] | 0.71 µM
22 | CCC(CC)C(=O)Nc1ccc(N2CCN(C(c3ccccc3)C3CC3)CC2)c(F)c1 (stereo not shown) [Compound 53, N-{4-[4-(Cyclopropyl-phenyl-methyl)-piperazin-1-yl]-3-fluoro-phenyl}-2-ethyl-butyramide] | 0.078 µM
23 | O=C(Nc1ccc(N2CCN(C(c3ccccc3)c3ncco3)CC2)c(F)c1)C1CCCCC1 (stereo not shown) [Compound 107, Cyclohexanecarboxylic acid {3-fluoro-4-[4-(oxazol-2-yl-phenyl-methyl)-piperazin-1-yl]-phenyl}-amide] | 1.2 µM
24 | N#Cc1cc(NC(=O)C2CCC(F)(F)CC2)ccc1N1CCN(C(c2ccccc2)c2ncco2)CC1 (stereo not shown) [Compound 109, 4,4-Difluoro-cyclohexanecarboxylic acid {3-cyano-4-[4-(oxazol-2-yl-phenyl-methyl)-piperazin-1-yl]-phenyl}-amide] | 3.6 µM
25 | O=C(Nc1ccc(N2CCN(C(c3ccccc3)c3ncco3)CC2)c(F)c1)[C@@H]1CCOC1 (stereo in doubt) [Compound 92, Tetrahydro-furan-3-carboxylic acid {3-fluoro-4-[4-(oxazol-2-yl-phenyl-methyl)-piperazin-1-yl]-phenyl}-amide] | 0.27 µM
26 | CCC(CC)C(=O)Nc1ccc(N2CCN(C(c3ccc(Cl)cc3)c3ncco3)CC2)c(F)c1 (stereo not shown) [Compound 157] | 0.16 µM

Same assay, conditions: apparent Ki=IC50/(1+C/KD)

Row | SMILES | Ki
27 | CN(C)CC(=O)Nc1ccc(N2CCN(C(c3ccccc3)c3ccccc3)CC2)c(C#N)c1 [Compound 300, N-[4-(4-Benzhydryl-piperazin-1-yl)-3-cyano-phenyl]-2-dimethylamino-acetamide] | 0.25 µM
28 | Cc1noc(C)c1C(=O)Nc1ccc(N2CCN(C(c3ccc(F)cc3)c3ccc(F)cc3)CC2)c(C#N)c1 [Compound 309, 3,5-Dimethyl-isoxazole-4-carboxylic acid (4-{4-[bis-(4-fluoro-phenyl)methyl]-piperazin-1-yl}-3-cyano-phenyl)-amide] | 0.74 µM
